Reference: ChEMBL document CHEMBL1121386, “Synthesis and analgesic activity of some 14 beta-substituted analogues of morphine” (1980)

Species: Cavia porcellus
Experiment: Tested for analgesic activity in the guinea pig ileum preparation relative to normorphine (1)
Assay type: functional

| SMILES | Relative activity |
| --- | --- |
| CN1CCC23c4c5ccc(O)c4O[C@H]2C(=O)C=C[C@@]3(Cl)C1C5 (stereo partly specified) | 0.5 |
| CN1CCC23c4c5ccc(O)c4O[C@H]2C(=O)C=C[C@@]3([N+](=O)[O-])C1C5 (stereo partly specified) | 0.006 |
| CN1CCC23c4c5ccc(O)c4O[C@H]2C(=O)C=C[C@@]3(Br)C1C5 (stereo partly specified) | 0.4 |
| CN1CCC23c4c5ccc(O)c4O[C@H]2[C@@H](O)C=C[C@@]3(O)C1C5 (stereo partly specified) | 0.8 |
| CC(=O)N[C@@]12C=C[C@H](OC(C)=O)[C@@H]3Oc4c(O)ccc5c4C31CCN(C)C2C5 (stereo partly specified) | 0.6 |
| CN1CCC23c4c5ccc(O)c4O[C@H]2[C@@H](O)C=C[C@@]3(S)C1C5 (stereo partly specified) | 0.4 |
